What was measured:
Human β2 adrenoceptor = target: T1, Human β2 adrenoceptor (Homo sapiens, UniProt P07550); assay: β2 adrenoceptor radioligand binding assay; settings: human β2 adrenoceptor membranes, 125-I cyanopindolol; Ki from IC50 by Cheng and Prusoff; read-out: B2 binding affinity (Ki class)
T1 construct: purchased Perkin Elmer
Method: Example. β2 Adrenoceptor Radioligand Binding Assay
Human β2 adrenoceptor membranes (7.5 ug/well) from Perkin Elmer were incubated with 0.3 nM 125-I Cyanopindolol with or without test compounds, or a saturating concentration of s-propranolol (2 μM) for the determination of non-specific binding. The assay was carried out in 96-well polypropylene plates in a volume of 200 ul. The assay buffer used was 25 mM HEPES, 0.5% BSA (w/v), 1 mM EDTA, 0.02% ascorbic acid (v/v), (pH 7.4). The final assay concentration of DMSO was 0.5% (v/v). The plates were sealed and incubated for 1 hour at room temperature on an orbital shaker (slow speed). Membranes were harvested onto 96-well unifilter GF/C filter plates pre-treated with 0.5% polyethyleneimine (v/v), using a filter manifold, washed six times with 200 μl of wash buffer containing 10 mM HEPES and 500 mM NaCl. The plates were dried before addition of 50 μl of microscint-0, sealed then read in a Trilux Microbeta scintillation counter. IC50 values are determined from competition curves using a non-linear curve fitting program. Ki values were calculated from IC50 values by the Cheng and Prusoff equation.

Human M3 receptor = target: T2, Human M3 receptor (Homo sapiens, UniProt P20309); assay: M3 receptor radioligand binding assay; settings: human M3 receptor membranes, [N-methyl-3H] scopolamine methyl chloride; Ki from IC50 by Cheng and Prusoff; read-out: M3 binding affinity (Ki class)
T2 construct: purchased Perkin Elmer
Method: Example. M3 Receptor Radioligand Binding Assay
The assay was carried out in 96-well polypropylene plates in a volume of 250 ul. […] The final assay concentration of DMSO was 0.5% (v/v). The plates were sealed and incubated for 2 hours at room temperature on an orbital shaker (slow speed). Membranes were harvested onto 96-well unifilter GF/C filter plates pre-treated with 0.5% polyethyleneimine (v/v), using a filter manifold, washed four times with 200 μl of assay buffer. The plates were dried before addition of 50 μl of microscint-0, sealed then read in a Trilux Microbeta scintillation counter. IC50 values are determined from competition curves using a non-linear curve fitting program. Ki values were calculated from IC50 values by the Cheng and Prusoff equation.

T1 sequence (P07550 whole entry): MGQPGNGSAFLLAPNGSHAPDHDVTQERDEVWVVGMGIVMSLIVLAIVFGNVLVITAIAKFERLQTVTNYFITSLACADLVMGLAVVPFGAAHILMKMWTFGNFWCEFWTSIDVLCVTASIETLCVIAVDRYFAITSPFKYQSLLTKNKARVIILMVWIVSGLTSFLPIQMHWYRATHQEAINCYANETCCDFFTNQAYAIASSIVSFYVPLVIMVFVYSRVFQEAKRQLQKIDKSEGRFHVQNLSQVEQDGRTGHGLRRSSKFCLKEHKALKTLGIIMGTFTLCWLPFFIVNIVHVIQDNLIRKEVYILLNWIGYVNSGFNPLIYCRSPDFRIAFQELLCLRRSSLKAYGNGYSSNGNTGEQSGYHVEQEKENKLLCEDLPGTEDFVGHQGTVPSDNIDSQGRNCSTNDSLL
T2 sequence (P20309 whole entry): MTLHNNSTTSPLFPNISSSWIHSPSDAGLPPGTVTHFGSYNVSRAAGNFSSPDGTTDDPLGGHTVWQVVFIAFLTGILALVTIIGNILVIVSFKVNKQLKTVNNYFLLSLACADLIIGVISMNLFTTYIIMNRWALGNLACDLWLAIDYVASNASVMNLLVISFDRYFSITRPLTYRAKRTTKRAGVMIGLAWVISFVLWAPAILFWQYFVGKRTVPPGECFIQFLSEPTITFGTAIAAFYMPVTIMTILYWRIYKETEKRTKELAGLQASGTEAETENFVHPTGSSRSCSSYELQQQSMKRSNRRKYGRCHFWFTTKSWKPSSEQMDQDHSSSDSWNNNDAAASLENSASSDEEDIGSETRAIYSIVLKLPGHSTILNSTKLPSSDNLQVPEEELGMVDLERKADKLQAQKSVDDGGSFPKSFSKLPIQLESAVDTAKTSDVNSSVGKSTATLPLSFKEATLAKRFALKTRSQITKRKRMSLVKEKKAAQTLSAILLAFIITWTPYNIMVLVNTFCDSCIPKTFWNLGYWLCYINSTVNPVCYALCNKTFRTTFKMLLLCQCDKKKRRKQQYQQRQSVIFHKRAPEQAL

Ki (Human β2 adrenoceptor) [nM] | Ki (Human M3 receptor) [nM] | Compound
> 10 | < 1 | O=C(NC1(C(=O)OCC2CCN(Cc3ccccc3)CC2)CCc2ccccc21)c1cccc(OCCCCCCNC[C@H](O)c2ccc(O)c3[nH]c(=O)ccc23)c1 (stereo partly drawn) [Compound 9, (1-benzylpiperidin-4-yl)methyl 1-(3-((6-(((R)-2-hydroxy-2-(8-hydroxy-2-oxo-1,2-dihydroquinolin-5-yl)ethyl)amino)hexyl)oxy)benzamido)-2,3-dihydro-1H-indene-1-carboxylate]
> 10 | 1 to 10 | O=C(NC1(C(=O)OCC2CCN(Cc3cccc(O)c3)CC2)CCc2ccccc21)c1cccc(OCCCCCCNC[C@H](O)c2ccc(O)c3[nH]c(=O)ccc23)c1 (stereo partly drawn) [Compound 11, (1-(3-hydroxybenzyl)piperidin-4-yl)methyl 1-(3-((6-(((R)-2-hydroxy-2-(8-hydroxy-2-oxo-1,2-dihydroquinolin-5-yl)ethyl)amino)hexyl)oxy)benzamido)-2,3-dihydro-1H-indene-1-carboxylate]
1 to 10 | < 1 | O=C(NCCCCNC[C@H](O)c1ccc(O)c2[nH]c(=O)ccc12)c1ccc(CNC2(C(=O)OCC3CCN(Cc4ccccc4)CC3)CCc3ccccc32)s1 (single isomer, unassigned; stereoisomer 1) [Compound 22]
1 to 10 | < 1 | O=C(NCCCCNC[C@H](O)c1ccc(O)c2[nH]c(=O)ccc12)c1ccc(CNC2(C(=O)OCC3CCN(Cc4ccccc4)CC3)CCc3ccccc32)s1 (stereo partly drawn) [Compound 16, (1-benzylpiperidin-4-yl)methyl 1-(((5-((4-(((R)-2-hydroxy-2-(8-hydroxy-2-oxo-1,2-dihydroquinolin-5-yl)ethyl)amino)butyl)carbamoyl)thiophen-2-yl)methyl)amino)-2,3-dihydro-1H-indene-1-carboxylate]
1 to 10 | < 1 | O=C(NCCCCNC[C@H](O)c1ccc(O)c2[nH]c(=O)ccc12)c1ccc(CNC2(C(=O)OCC3CCN(Cc4cccc(O)c4)CC3)CCc3ccccc32)s1 (stereo partly drawn) [Compound 15, (1-(3-hydroxybenzyl)piperidin-4-yl)methyl 1-(((5-((4-(((R)-2-hydroxy-2-(8-hydroxy-2-oxo-1,2-dihydroquinolin-5-yl)ethyl)amino)butyl)carbamoyl)thiophen-2-yl)methyl)amino)-2,3-dihydro-1H-indene-1-carboxylate]
1 to 10 | < 1 | O=C(NCCCCNC[C@H](O)c1ccc(O)c2[nH]c(=O)ccc12)c1ccc(CNC2(C(=O)OCC3CCN(Cc4ccccc4)CC3)CCc3ccccc32)s1 (single isomer, unassigned; stereoisomer 2) [Compound 23]
> 10 | 1 to 10 | O=C(NC1(C(=O)OCC2CCN(Cc3ccco3)CC2)CCc2ccccc21)c1cccc(OCCCCCCNC[C@H](O)c2ccc(O)c3[nH]c(=O)ccc23)c1 (stereo partly drawn) [Compound 10, (1-(furan-2-ylmethyl)piperidin-4-yl)methyl 1-(3-((6-(((R)-2-hydroxy-2-(8-hydroxy-2-oxo-1,2-dihydroquinolin-5-yl)ethyl)amino)hexyl)oxy)benzamido)-2,3-dihydro-1H-indene-1-carboxylate]

The next lines start with the molecule.

Compound | Ki (Human β2 adrenoceptor) [nM] | Ki (Human M3 receptor) [nM]
O=C(NCCCCNC[C@H](O)c1ccc(O)c2[nH]c(=O)ccc12)c1ccc(CNC2(C(=O)OC3CCN(Cc4ccccc4)CC3)CCc3ccccc32)s1 (single isomer, unassigned; stereoisomer 2) [Compound 27] | > 10 | < 1
Cc1cccc2c1CCC2(NCc1cccc(C(=O)NCCCCNC[C@H](O)c2ccc(O)c3[nH]c(=O)ccc23)c1)C(=O)O[C@H]1CN2CCC1CC2 (stereo partly drawn) [Compound 5, (R)-quinuclidin-3-yl 1-((3-((4-(((R)-2-hydroxy-2-(8-hydroxy-2-oxo-1,2-dihydroquinolin-5-yl)ethyl)amino)butyl)carbamoyl)benzyl)amino)-4-methyl-2,3-dihydro-1H-indene-1-carboxylate] | < 1 | < 1
O=C(NCCCCNC[C@H](O)c1ccc(O)c2[nH]c(=O)ccc12)c1ccc(CNC2(C(=O)O[C@@H]3CCN(Cc4ccccc4)C3)CCc3ccccc32)s1 (single isomer, unassigned; stereoisomer 2) [Compound 28] | 1 to 10 | < 1
O=C(NC1(C(=O)O[C@H]2CN3CCC2CC3)CCc2ccccc21)c1ccc(OCc2ccc(CNC[C@H](O)c3ccc(O)c4[nH]c(=O)ccc34)cc2)cc1 (stereo partly drawn) [Compound 19, (R)-quinuclidin-3-yl 1-(4-((4-((((R)-2-hydroxy-2-(8-hydroxy-2-oxo-1,2-dihydroquinolin-5-yl)ethyl)amino)methyl)benzyl)oxy)benzamido)-2,3-dihydro-1H-indene-1-carboxylate] | > 10 | 1 to 10
O=C(Cc1ccc(CC(=O)NC2(C(=O)O[C@H]3CN4CCC3CC4)CCc3ccccc32)cc1)Nc1ccc(CNC[C@H](O)c2ccc(O)c3[nH]c(=O)ccc23)cc1 (stereo partly drawn) [Compound 18, (R)-quinuclidin-3-yl 1-(2-(4-(2-((4-((((R)-2-hydroxy-2-(8-hydroxy-2-oxo-1,2-dihydroquinolin-5-yl)ethyl)amino)methyl)phenyl)amino)-2-oxoethyl)phenyl)acetamido)-2,3-dihydro-1H-indene-1-carboxylate] | > 10 | 1 to 10
O=C(O[C@H]1CN2CCC1CC2)C1(NCc2cccc(OCc3cccc(OCCCCNC[C@H](O)c4ccc(O)c5[nH]c(=O)ccc45)c3)c2)CCc2ccccc21 (stereo partly drawn) [Compound 21, (R)-quinuclidin-3-yl 1-((3-((3-(4-(((R)-2-hydroxy-2-(8-hydroxy-2-oxo-1,2-dihydroquinolin-5-yl)ethyl)amino)butoxy)benzyl)oxy)benzyl)amino)-2,3-dihydro-1H-indene-1-carboxylate] | < 1 | < 1
O=C(NCCCCNC[C@H](O)c1ccc(O)c2[nH]c(=O)ccc12)c1ccc(CNC2(C(=O)OC3CCN(Cc4ccccc4)CC3)CCc3ccccc32)s1 (single isomer, unassigned; stereoisomer 1) [Compound 24] | > 10 | < 1
Cc1cccc2c1CCC2(NC(=O)c1cccc(OCCCCCNC[C@H](O)c2ccc(O)c3[nH]c(=O)ccc23)c1)C(=O)O[C@H]1CN2CCC1CC2 (single isomer, unassigned; diastereoisomer 2) [Compound 5B] | < 1 | < 1
O=C(NCCCCNC[C@H](O)c1ccc(O)c2[nH]c(=O)ccc12)c1ccc(CNC2(C(=O)O[C@@H]3CCCN(Cc4ccccc4)C3)CCc3ccccc32)s1 (single isomer, unassigned; stereoisomer 1) [Compound 25] | > 10 | < 1
O=C(NCCCCNC[C@H](O)c1ccc(O)c2[nH]c(=O)ccc12)c1ccc(CNC2(C(=O)OCC3CCN(Cc4cccs4)CC3)CCc3ccccc32)s1 (stereo partly drawn) [Compound 17, (1-(thiophen-2-ylmethyl)piperidin-4-yl)methyl 1-(((5-((4-(((R)-2-hydroxy-2-(8-hydroxy-2-oxo-1,2-dihydroquinolin-5-yl)ethyl)amino)butyl)carbamoyl)thiophen-2-yl)methyl)amino)-2,3-dihydro-1H-indene-1-carboxylate] | > 10 | < 1
O=C(NCCCCNC[C@H](O)c1ccc(O)c2[nH]c(=O)ccc12)c1cccc(CNC2(C(=O)O[C@H]3CN4CCC3CC4)CCc3ccccc32)c1 (stereo partly drawn) [Compound 1, (R)-quinuclidin-3-yl 1-((3-((4-(((R)-2-hydroxy-2-(8-hydroxy-2-oxo-1,2-dihydroquinolin-5-yl)ethyl)amino)butyl)carbamoyl)benzyl)amino)-2,3-dihydro-1H-indene-1-carboxylate] | < 1 | < 1

Source: patent publication US9932338B2, “Compounds having muscarinic receptor antagonist and BETA2 adrenergic receptor agonist activity” (CHIESI FARMACEUTICI S.P.A., priority 2015, dated 2018)
